# Source: patent US20070172514A1, “Materials and methods for improving livestock productivity” (priority 2006, published 2007)
# Marks after values point to notes of the source that are not given here.
# Columns and labels:
# [1] = system: D×L×M weanling piglets; experiment: Enhanced growth in swine: weanling piglets fed cysteamine hydrochloride; format: in vivo; conditions: 30 days; for ADG, Improvement (%): (text: 90 g per ton of feed), hydrochloride
# Text: Total of 100 heads of unhealthy D×L×M weanling piglets (approx. 6.78 kg) were divided into 2 groups—Control group (50 heads) & Cysteamine group (50 heads). The Control group was fed with basal diet. […]
# [2] = system: Ximenta'er hybridizing beef cattle; experiment: Enhanced productivity in beef cattle; format: in vivo
# Method: In the following example, the test animals were beef cattle (Ximenta'er hybridizing beef cattle). The experiment was performed at the Hebei Hengshui Geling Beef Cattle Raising Farm dur the period from Oct. 10 to Dec. 21, 2002. In total, 64 heads of around 350 kg Ximenta'er hybridizing beef cattle were selected and separated into 4 groups randomly according to the principle of equalizing age, weight, grace, fur/hair condition, etc. Each group had 16 heads of beef cattle. The Control Group, Test Group I, II & III were fed a composition comprising 0, 1.5, 3, 6 g/head/day of cysteamine HCl, respectively. As noted in Tables 8, 9, and 10 below, adding a cysteamine compound to the basal diet of beef cattle can increase daily weight gain.
# [3] = system: pig intestine villi; experiment: Intestine villi length and histology in pigs; format: in vivo, swine; conditions: 30 days
# Method: 72 piglets were evenly divided into control group and Cysteamine group. The control group was treated with basal diet only, while the Cysteamine group was added with 150 g of cysteamine hydrochloride per ton of feed. The trial was lasted for 30 days.
# Immediately after evisceration, tissue samples from the small intestine, large intestine, liver, and pancreas of pigs from each treatment group were collected. The collected samples were placed in properly labeled containers containing 10% buffered neutral formalin solution. The tissue samples were fixed for 78 hours before they were processed for routine histological examination using the paraffin embedding technique (well-known to the skilled artisan).
# Sections approximately 5 to 6 μ thick were cut from paraffin blocked tissues using Optical 820 Rotary Microtome (Scientific Instruments Division, Buffalo, N.Y.). Some sections were stained with hematoxylin and eosin (H & E), others with Alcian blue. H & E stained sections were used for the examination of the general histology of the intestinal tract while the Alcian blue stained sections were used for goblet cells identification. The stained sections were examined under various magnifications using a light microscope.
# The number and length (μm) of villi in the small intestine were counted per microscopic field; the thickness of the tunica muscularis in the small and large intestine were measured using American Optical Micrometer (American Optical Company, Buffalo, N.Y.) calibrated in millimeters. The mucosal folds in the large intestine, the density of intestinal glands (crypts), the appearance of the surface epithelium were all observed. The general histology of the liver and pancreas were examined and compared between Cysteamine treated and non-Cysteamine treated groups. Goblet cell density in the Cysteamine treated and non-Cysteamine treated pigs was compared through visual examination using light microscope.
# [4] = system: pregnant pig sow; experiment: Enhanced productivity in swine: pregnant sows fed cysteamine hydrochloride; format: in vivo, swine (D×L×M hybrid swine); parameters: Live piglet born rate, Improvement / Live piglet born rate, Improvement (%) / Birth weight per litter, Improvement: dose or concentration left out as unconfirmed; conditions: for Birth weight per litter, Improvement (%) / Birth weight per piglet, Improvement (%) / Body weight of weaned piglet, Improvement (%): hydrochloride
# Text: A total of 14 heads of pregnant pig sow (which were the offspring of Duroc×Landrace×Meishan swine, also referred to herein as D×L×M hybrid swine) (84 days of pregnant) were divided into 2 groups: Control group (6) and Cysteamine group (8). The Control group was fed with basal diet. […]
# [5] = system: small-fat-tail sheep; experiment: Enhanced productivity in small-fat-tail sheep; format: in vivo; conditions: 35 days
# Method: In the following example, the test animals were sheep (small-fat-tail sheep). The experiment was performed at the Goat Trial Farm of Beijing Shengshifumin Muslim Food Company during the thirty-five day period from Dec. 2, 2004 to Jan. 5, 2005. In total, 40 heads of small-fat-tail sheep with the average weight of 26.5 kg were randomly divided into Control group (20) and Cysteamine group (20). The control group was fed with basal diet only, while the Cysteamine group was fed a diet that included 900 g cysteamine HCl per tonnage of diet. The standard basal diet of the farm was employed for this trial.
# [6] = system: fattening pigs; experiment: Carcass composition/appearance of fattening pigs; format: in vivo, swine
# Method: 72 piglets were divided evenly into control group and Cysteamine group. The control group was treated with basal diet while the Cysteamine group was treated with basal diet added with 150 g cysteamine hydrochloride per ton of feed. Upon reaching the market weight of 85-90 kg, five animals from each treatment were slaughtered after fasting for one day. During slaughter, the animals were stunned with a stunning gun, bled, dehaired and eviscerated. The carcass was split […] and then chilled for 24 hours prior to fabrication. The slaughter and the chilled carcass weights were recorded. The chilled carcass weight expressed as percentage of the slaughter weight represents the dressed yield. The wholesale and retail cuts of each animals were weighed and recorded. The values were expressed as the percentage of the live weight and of the chilled carcass weight.
# The area of the longissimus dorsi (LD) muscle was measured on the 12th rib of the right part of the carcasses. This was done by tracing the outline of the whole LD muscle on acetate paper and the area was measured with the use of a grading method.
# [7] = system: crossbreed sheep; experiment: Enhanced productivity in crossbreed sheep; format: in vivo; conditions: 35 days
# [8] = vs control, 90 g cysteamine hydrochloride per ton of feed
# [9] = Test III, 6 g/head/day, p<0.05 vs Control
# [10] = in words, 150 g per ton of feed
# [11] = late phase pregnant sow, (text: 150 g per ton feed)
# [12] = relative to control, (text: 150 g per ton feed)
# [13] = relative to control, Dosage (text: 150 g per ton feed)
# [14] = feed consumption, 20 head, 900 g/tonnage
# [15] = in words, 900 g cysteamine HCl per tonnage of diet
# [16] = relative to control, 900 g/tonnage
# [17] = 150 g per ton of feed, slaughter at 85-90 kg
compound,measurement,setting,value
"Cl.NCCS [Cysteamine HCl, cysteamine hydrochloride]",Total feed consumption,[1]; 50 head,1076.1 kg
same,Total final weight,[1]; 50 head,973 kg
same,Total weight gain,[1]; 50 head,633 kg
same,Daily feed consumption,[1],717.4 g/head
same,Weight gain,[1],12.66 kg/head
same,ADG,[1]; average daily weight gain,422 g/head
same,"Total feed consumption, Improvement","[1]; difference vs control, 50 head",+66.3 kg
same,"Total final weight, Improvement","[1]; difference vs control, 50 head",+75 kg
same,"Total weight gain, Improvement","[1]; difference vs control, 50 head",+72.5 kg
same,"ADG, Improvement",[1]; difference vs control,+48 g/head
same,"Daily feed consumption, Improvement",[1]; difference vs control,+44.2 g/head
same,"FCR, Improvement",[1]; difference vs control,−0.1
same,"Final Wt., Improvement",[1]; difference vs control,+1.5 kg/head
same,"Weight gain, Improvement",[1]; difference vs control,+1.45 kg/head
same,FCR,[1]; feed conversion rate,1.70
same,Diarrhea,[1]; of 50 head,21 head
same,"Diarrhea, Improvement (%)",[1]; relative to control,−43.24%
same,"FCR, Improvement (%)",[1]; relative to control,−5.56%
same,"ADG, Improvement (%)","[1]; relative to control, listed as Cysteamine",12.83%
same,"ADG, Improvement (%)","[1]; relative to control, listed as cysteamine hydrochloride",12.83%
same,decrease in feed conversion rate (FCR),[1]; [8],5.56%
same,improvement in diarrhea condition,[1]; [8],43.24%
same,Final Wt.,"[1]; weanling piglets, Treatment (text: 90 g cysteamine hydrochloride per ton of feed)",19.46 kg/head
same,daily weight gain,"[2]; Test Group III, 6 g/head/day, p<0.05 vs Control, Test Group I & II",1.217 kg
same,"Feed Conversion Rate (FCR), Concentrated feed","[2]; Test I, 1.5 g/head/day",3.54
same,"Feed Conversion Rate (FCR), Corn Silage","[2]; Test I, 1.5 g/head/day",14.14
same,"Feed Conversion Rate (FCR), Raw Grass","[2]; Test I, 1.5 g/head/day",1.21
same,Final Wt.,"[2]; Test I, 1.5 g/head/day",423.8 kg
same,"Feed Conversion Rate (FCR), Concentrated feed","[2]; Test II, 3 g/head/day",3.70^a
same,"Feed Conversion Rate (FCR), Corn Silage","[2]; Test II, 3 g/head/day",14.42^a
same,"Feed Conversion Rate (FCR), Raw Grass","[2]; Test II, 3 g/head/day",1.27^a
same,Final Wt.,"[2]; Test II, 3 g/head/day",420.5 kg
same,"Feed Conversion Rate (FCR), Raw Grass","[2]; Test III, 6 g/head/day",1.06^a
same,Final Wt.,"[2]; Test III, 6 g/head/day",432.7 kg
same,"Feed Conversion Rate (FCR), Concentrated feed",[2]; [9],3.09^b
same,"Feed Conversion Rate (FCR), Corn Silage",[2]; [9],12.87^b
same,"Villi Length, Small Intestines","[3]; 150 g of cysteamine hydrochloride per ton of feed, same letter as Non-Cysteamine (p>0.05), unit only in method b111",2.15 ± 0.09^A μm
same,goblet cells in the small and large intestine vs non-Cysteamine-treated,[3]; [10],noticeably larger and highly distended
same,length of small intestinal villi vs non-Cysteamine treated,[3]; [10],longer
same,number of small intestinal villi vs non-Cysteamine treated,[3]; [10],more numerous
same,"Birth weight per litter, Improvement",[4]; difference vs control,2.50 kg
same,"Birth weight per piglet, Improvement",[4]; difference vs control,0.23 kg/head
same,"Live piglet born rate, Improvement",[4]; difference vs control,0.00%
same,"Body weight of weaned piglet, Improvement","[4]; difference vs control, weaning age 19 days",0.46 kg/head
same,Total piglet born,"[4]; late phase pregnant sow, 8 sows, Dosage (text: 150 g cysteamine hydrochloride per ton feed), from 84 days of pregnant to weaning",82 head
same,Total live piglet born,"[4]; late phase pregnant sow, 8 sows, Dosage (text: 150 g per ton feed)",82 head
same,Birth weight per litter,[4]; [11],21.32 kg
same,Birth weight per piglet,[4]; [11],2.08 kg/head
same,Live piglet born per litter,[4]; [11],10.29 head
same,Live piglet born rate,[4]; [11],100.00%
same,Piglet born per litter,"[4]; late phase pregnant sow, Dosage (text: 150 g per ton feed), from 84 days of pregnant to weaning",10.29 head
same,"Live piglet born rate, Improvement (%)",[4]; relative to control,0.00%
same,"Birth weight per litter, Improvement (%)",[4]; [12],13.28%
same,"Birth weight per piglet, Improvement (%)",[4]; [12],12.43%
same,"Birth weight per litter, Improvement (%)",[4]; [13],13.28%
same,"Birth weight per piglet, Improvement (%)",[4]; [13],12.43%
same,"Body weight of weaned piglet, Improvement (%)","[4]; relative to control, weaning age 19 days, listed as Cysteamine",8.00%
same,"Body weight of weaned piglet, Improvement (%)","[4]; relative to control, weaning age 19 days, listed as cysteamine hydrochloride",8.00%
same,Body weight of weaned piglet,"[4]; weaning age 19 days, Dosage (text: 150 g per ton feed)",6.21 kg/head
same,Total feed consumption,"[5]; 20 head, 900 g/tonnage",1019.38 kg
same,Final weight,[5]; Dosage 900 g/tonnage,28.92 kg/head
same,Weight gain,[5]; Dosage 900 g/tonnage,3.350 kg/head
same,daily weight gain,[5]; Dosage 900 g/tonnage,95.71 g/head/day
same,Concentrate,[5]; [14],245 kg
same,Hay,[5]; [14],350.00 kg
same,Silage,[5]; [14],424.38 kg
same,ADG vs control,[5]; [15],statistically significant increase
same,"Daily weight gain, Improvement (%)",[5]; [16],30.9%
same,"Silage, Improvement (%)",[5]; [16],−16.22%
same,"Weight gain, Improvement (%)",[5]; [16],30.9%
same,Dressing %,"[6]; 150 g cysteamine hydrochloride per ton of feed, slaughter at 85-90 kg, five animals",69.012%
same,Lean:Fat Ratio,[6]; [17],0.105
same,Loin Eye Area,[6]; [17],4.850 sq.cm
same,Backfat Thickness,"[6]; 150 g per ton of feed, slaughter at 85-90 kg, P < 0.05 vs Non-Cysteamine HCl",1.91^a cm
same,backfat vs pigs fed diet without cysteamine hydrochloride,[6]; in words,significantly thinner
same,"differences in dressing percentage, loin eye area, and lean:fat ratio vs diet without cysteamine hydrochloride",[6]; in words,no significant differences
same,loin cut and lean trimmings as a percent of the live-weight vs diets without cysteamine hydrochloride,[6]; in words,significantly higher
same,Total feed consumption,"[7]; 20 head, 900 g/tonnage",1001.2 kg
same,ADG,[7]; Dosage 900 g/tonnage,82.29 g/head/day
same,Final weight,[7]; Dosage 900 g/tonnage,29.59 kg/head
same,Weight gain,[7]; Dosage 900 g/tonnage,2.88 kg/head
same,Concentrate,[7]; [14],245 kg
same,Hay,[7]; [14],350.0 kg
same,Silage,[7]; [14],406.2 kg
same,ADG vs control,[7]; [15],statistically significant increase
same,"ADG, Improvement (%)",[7]; [16],46.2%
same,"Silage, Improvement (%)",[7]; [16],−5.14%
same,"Weight gain, Improvement (%)",[7]; [16],46.2%
